These results are taken from US7449545B2, “Antimicrobial bolisin peptides” (IPF Pharmaceuticals GmbH, priority 2001, dated 2008).

Holding throughout (format): cell-based
Assay [1] has as its system Pseudomonas aeruginosa ATCC 9027. Conditions: Mueller Hinton Broth; complete growth inhibition not achieved. An excerpt:
(§1) The bolisin analogues of the present invention were examined for their suitability as antibiotic therapeutical agents by means of various biological tests. Thus, the chemically synthesized peptides were examined for their antimicrobial effectiveness against three Gram-positive and three Gram-negative bacterial strains as well as against a yeast.
(§2) The following microorganisms were used: • Gram-positive: Staphylococcus aureus ATCC 25923 • Enterococcus faecalis ATCC 51299 (vancomycin-resistant) • Streptococcus pneumoniae DSM 11865 (penicillin-resistant) • Gram-negative: Escherichia coli ATCC 25922 • Pseudomonas aeruginosa ATCC 9027 • Klebsiella pneumoniae ATCC 10031 • Yeast: Candida albicans ATCC 10231
(§3) The antibiotic activity of bolisin analogues was examined by determining the minimum inhibition concentration. The minimum inhibition concentration of an analogue designates the lowest peptide concentration which is required to inhibit the growth of microorganisms completely after an incubation time of 18±2 h. This method allows to obtain a quantitative result about the antimicrobial potency of the peptides. These examinations were performed by analogy with the recommendations (M7-A3) edited by the NCCLS (National Committee for Clinical Laboratory Standards) by applying a dilution test in a liquid medium using chemically synthesized peptides (peptide sequences according to claims 1 to 3). Mueller Hinton Broth was used as the test medium according to the NCCLS recommendations unless indicated otherwise. […] The minimum inhibition concentrations are stated in [μg/ml].
(§4) A complete growth inhibition could not be achieved in this case. For determining the minimum inhibition concentration, the following microorganisms were used: • 1. Staphylococcus aureus ATCC 25923 • 2. Enterococcus faecalis ATCC 51299 (vancomycin-resistant) • 3. Streptococcus pneumoniae DSM 11865 (penicillin-resistant) • 4. Escherichia coli ATCC 25922 • 5. Pseudomonas aeruginosa ATCC 9027 • 6. Klebsiella pneumoniae ATCC 10031 • 7. Candida albicans ATCC 10231

In assay [2] the test system is Streptococcus pneumoniae DSM 11865 (penicillin-resistant). Conditions: DSM 11865, 2 h.
Excerpt: as §1, §2
as §3, with “The minimum inhibition concentration of an analogue designates the lowest peptide concentration which is required to inhibit the growth of microorganisms completely after an incubation time of 18±2 h.” left out
as §4

Assay [3] deals with Candida albicans ATCC 10231. The note with it: for minimum inhibition concentration: ATCC 10231, 2 h; for peptide concentration giving 75% inhibition of growth (value in parentheses): Mueller Hinton Broth, complete growth inhibition not achieved.
Excerpt: as §1, §2
as §3, with “The minimum inhibition concentration of an analogue designates the lowest peptide concentration which is required to inhibit the growth of microorganisms completely after an incubation time of 18±2 h.” left out
as §4

The test system of assay [4] is Escherichia coli ATCC 25922. Conditions: ATCC 25922, 2 h.
Excerpt: as §1, §2
as §3, with “The minimum inhibition concentration of an analogue designates the lowest peptide concentration which is required to inhibit the growth of microorganisms completely after an incubation time of 18±2 h.” left out
as §4

Assay [5] concerns Staphylococcus aureus ATCC 25923. Conditions: ATCC 25923, 2 h.
Excerpt: as §1, §2
as §3, with “The minimum inhibition concentration of an analogue designates the lowest peptide concentration which is required to inhibit the growth of microorganisms completely after an incubation time of 18±2 h.” left out
as §4

Assay [6] deals with Klebsiella pneumoniae ATCC 10031. The note with it: ATCC 10031, 2 h.
Excerpt: as §1, §2
as §3, with “The minimum inhibition concentration of an analogue designates the lowest peptide concentration which is required to inhibit the growth of microorganisms completely after an incubation time of 18±2 h.” left out
as §4

Assay [7] concerns Enterococcus faecalis ATCC 51299 (vancomycin-resistant). The note with it: ATCC 51299, 2 h.
Excerpt: as §1, §2
as §3, with “The minimum inhibition concentration of an analogue designates the lowest peptide concentration which is required to inhibit the growth of microorganisms completely after an incubation time of 18±2 h.” left out
as §4

Ends that are not written are not given here. Bounds are passed on as bounds.

On to “KYIVYKIRSARKRRKALK-OH [BOL-84, KYIVYKIRSARKRRKALK]”, for which, in assay [1], the “peptide concentration giving 75% inhibition of growth (value in parentheses)” value is “(75) μg/ml”. The minimum inhibition concentration is 300 µg/mL in assay [2]; 37.5 µg/mL in assay [3]; above 300 µg/mL in assay [4]; above 300 µg/mL in assay [5]; 75 µg/mL in assay [6]; above 300 µg/mL in assay [7].

On to “KYIVYKIRSAWKRSKALK-OH [BOL-85, KYIVYKIRSAWKRSKALK]”, for which the “peptide concentration giving 75% inhibition of growth (value in parentheses)” value in assay [1] is recorded as “(37.5) μg/ml”. For the same substance, the minimum inhibition concentration was 300 µg/mL in assay [2]; 75 µg/mL in assay [3]; above 300 µg/mL in assay [4]; above 300 µg/mL in assay [5]; 150 µg/mL in assay [6]; 300 µg/mL in assay [7].

As to “KYIVYKIRWARKRRKALK-OH [BOL-87, KYIVYKIRWARKRRKALK]”, the “peptide concentration giving 75% inhibition of growth (value in parentheses)” value in assay [1] is reported as “(9.375) μg/ml”. Also, the minimum inhibition concentration was determined as 9.375 µg/mL in assay [2]; 9.375 µg/mL in assay [3]; 18.75 µg/mL in assay [4]; 9.375 µg/mL in assay [5]; 9.375 µg/mL in assay [6]; 37.5 µg/mL in assay [7].

Regarding “YIVRKIRSAWKRRKALK-OH [BOL-80, YIVRKIRSAWKRRKALK]”, the “peptide concentration giving 75% inhibition of growth (value in parentheses)” value in assay [1] was “(18.75) μg/ml”. The minimum inhibition concentration in assay [2] was above 300 µg/mL; in assay [3], 37.5 µg/mL; in assay [4] it was above 300 µg/mL; in assay [5], above 300 µg/mL; in assay [6], 150 µg/mL; in assay [7], above 300 µg/mL.

As for “YIVRKIRSAWKRWKALK-OH [BOL-79, YIVRKIRSAWKRWKALK]”, the “peptide concentration giving 75% inhibition of growth (value in parentheses)” value in assay [1] is on record as “(4.7) μg/ml”. The minimum inhibition concentration is 300 µg/mL in assay [2]; 4.7 µg/mL in assay [3]; 3.125 µg/mL in assay [4]; 9.375 µg/mL in assay [5]; 2.35 µg/mL in assay [6]; above 300 µg/mL in assay [7].

In the case of “YIVWKIRSARKRRKALK-OH [BOL-74, YIVWKIRSARKRRKALK]”, in assay [1], the “peptide concentration giving 75% inhibition of growth (value in parentheses)” value is recorded as “(12.5) μg/ml”. Moreover, the minimum inhibition concentration in assay [2] came to 150 µg/mL; in assay [3] it was 75 µg/mL; in assay [4], 300 µg/mL; in assay [5], 300 µg/mL; in assay [6], 18.75 µg/mL; in assay [7], 150 µg/mL.

Consider “YIVWKIRSAWKRSKALK-OH [BOL-75, YIVWKIRSAWKRSKALK]”, for which, in assay [1], the “peptide concentration giving 75% inhibition of growth (value in parentheses)” value is “(37.5) μg/ml”. Moreover, the minimum inhibition concentration in assay [2] amounted to 150 µg/mL; in assay [3], 37.5 µg/mL; in assay [4], 75 µg/mL; in assay [5] it was 150 µg/mL; in assay [6], 75 µg/mL; in assay [7], 200 µg/mL.

On to “YIVWKIRSAWKRWKALK-OH [BOL-82, YIVWKIRSAWKRWKALK]”, for which the “peptide concentration giving 75% inhibition of growth (value in parentheses)” value in assay [1] is listed as “(9.375) μg/ml”. Also, the minimum inhibition concentration in assay [2] is 37.5 µg/mL; in assay [3], 9.375 µg/mL; in assay [4], 18.75 µg/mL; in assay [5] it was 18.75 µg/mL; in assay [6], 12.5 µg/mL; in assay [7], 75 µg/mL.

On to “YIVYKIRRAWKRSKALK-OH [BOL-53, YIVYKIRRAWKRSKALK]”, for which the “peptide concentration giving 75% inhibition of growth (value in parentheses)” value is given as “(75) μg/ml” in assay [1] and “(37.5) μg/ml” in assay [3]. In addition, the minimum inhibition concentration was 200 µg/mL in assay [2]; 200 µg/mL in assay [4]; 150 µg/mL in assay [5]; 100 µg/mL in assay [6]; 200 µg/mL in assay [7].

Turning to “YIVYKIRRAWKRWKALK-OH [BOL-55, YIVYKIRRAWKRWKALK]”, the “peptide concentration giving 75% inhibition of growth (value in parentheses)” value in assay [1] is “(9.375) μg/ml”. The minimum inhibition concentration was 37.5 µg/mL in assay [2]; 9.375 µg/mL in assay [3]; 12.5 µg/mL in assay [4]; 12.5 µg/mL in assay [5]; 3.125 µg/mL in assay [6]; 50 µg/mL in assay [7].

In the case of “YIVYKIRSAKKRKKALK-OH [BOL-56, YIVYKIRSAKKRKKALK]”, the “peptide concentration giving 75% inhibition of growth (value in parentheses)” value was “(200) μg/ml” in assay [1] and “(300) μg/ml” in assay [3]. In addition, the minimum inhibition concentration in assay [2] was above 300 µg/mL; in assay [4] it was above 300 µg/mL; in assay [5], above 300 µg/mL; in assay [6], 300 µg/mL; in assay [7] it was above 300 µg/mL.

With “YIVYKIRSAKKRWKALK-OH [BOL-57, YIVYKIRSAKKRWKALK]”, the “peptide concentration giving 75% inhibition of growth (value in parentheses)” value in assay [1] was “(200) μg/ml”. In addition, the minimum inhibition concentration in assay [2] was above 300 µg/mL; in assay [3], 300 µg/mL; in assay [4], above 300 µg/mL; in assay [5] it was above 300 µg/mL; in assay [6] it was 300 µg/mL; in assay [7] it was above 300 µg/mL.

For “YIVYKIRSARKRWKAL [BOL-68, YIVYKIRSARKRWKAL]”, the “peptide concentration giving 75% inhibition of growth (value in parentheses)” value in assay [1] is “(200) μg/ml”. The minimum inhibition concentration in assay [2] turned out to be 300 µg/mL; in assay [3] it was 200 µg/mL; in assay [4] it was 200 µg/mL; in assay [5], 200 µg/mL; in assay [6] it was 300 µg/mL; in assay [7] it was 200 µg/mL.

Regarding “YIVYKIRSARKRWKALK-OH [BOL-46, YIVYKIRSARKRWKALK]”, in assay [1], the “peptide concentration giving 75% inhibition of growth (value in parentheses)” value is “(100) μg/ml”. For the same substance, the minimum inhibition concentration in assay [2] came to 200 µg/mL; in assay [3], 150 µg/mL; in assay [4], 200 µg/mL; in assay [5], 300 µg/mL; in assay [6], 150 µg/mL; in assay [7], 200 µg/mL.

Take “YIVYKIRSAWKRKKALK-OH [BOL-58, YIVYKIRSAWKRKKALK]”: the “peptide concentration giving 75% inhibition of growth (value in parentheses)” value is “(100) μg/ml” in assay [1] and “(75) μg/ml” in assay [3]. Moreover, the minimum inhibition concentration in assay [2] is 300 µg/mL; in assay [4], above 300 µg/mL; in assay [5], above 300 µg/mL; in assay [6] it was 100 µg/mL; in assay [7], above 300 µg/mL.

Turning to “YIVYKIRSAWKRRK-OH [BOL-69, YIVYKIRSAWKRRK]”, in assay [1], the “peptide concentration giving 75% inhibition of growth (value in parentheses)” value is recorded as “(200) μg/ml”. Moreover, the minimum inhibition concentration amounted to 200 µg/mL in assay [2]; 37.5 µg/mL in assay [3]; 150 µg/mL in assay [4]; 300 µg/mL in assay [5]; 300 µg/mL in assay [6]; 150 µg/mL in assay [7].
